For this experiment, the target named is T1, Angiotensin II Receptor (Bos taurus, UniProt P25104).
T1 construct: The brownish tissue forming the adrenal cortex is scraped off and finely minced with scissors before homogenization; tissue local slaughter house (Maxwell--Cohen); host or cells: beef adrenal cortex, microsomal membranes (100,000×g pellet)
T1 sequence (P25104 1-359): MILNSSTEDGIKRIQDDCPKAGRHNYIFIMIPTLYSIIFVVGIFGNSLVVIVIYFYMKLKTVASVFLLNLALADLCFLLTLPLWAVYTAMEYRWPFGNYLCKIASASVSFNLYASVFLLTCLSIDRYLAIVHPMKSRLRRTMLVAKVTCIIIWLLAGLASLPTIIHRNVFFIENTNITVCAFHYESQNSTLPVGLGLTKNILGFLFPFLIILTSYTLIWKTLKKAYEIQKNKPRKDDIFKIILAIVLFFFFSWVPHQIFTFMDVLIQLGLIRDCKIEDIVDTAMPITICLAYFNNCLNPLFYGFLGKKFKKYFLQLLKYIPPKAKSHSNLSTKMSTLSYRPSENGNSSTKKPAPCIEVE
As to the kind of experiment: Receptor Binding Assay: binding of [125I](Sar1,Ile8)AngII to beef adrenal cortex membranes. Conditions: radioligand, beef adrenal membranes; non-specific with 1.0 uM unlabeled (Sar1,Ile8)AngII. An excerpt: [^125 I](Sar^1,Ile^8)AngII, S.A. 2200 Ci/mmole, is purchased from Dupont (NEN®, Boston, Mass.). All unlabeled AngII analogs, Dimethylsulfoxide (DMSO), nucleotides, bovine serum albumin (BSA) are purchased from Sigma Chemical Co., St. Louis, Mo. U.S.A.
Approximately sixteen (16) to twenty (20) beef adrenal glands are processed as follows: fresh adrenal glands received on crushed ice are cleaned of fatty tissues and the tough membranes encapsulating the glands are removed and discarded. The brownish tissue forming the adrenal cortex is scraped off and finely minced with scissors before homogenization. Care is taken to avoid contamination with medullary tissue during dissection. The scraped cortices are suspended in twenty volumes of an ice-cold buffer medium consisting of 10 mM Tris.HCl (pH 7.4 at 22° C.) and containing 1.0 mM EDTA and 0.2M sucrose. Unless otherwise indicated, all subsequent operations are done at 4° C. […] The homogenate is centrifuged first at low speed (3,000×g) for 10 min. […] This P2 pellet is discarded and the liquid phase is carefully decanted off in clean centrifuge tubes and recentrifuged at high speed (100,000×g) for 60 min. The translucent final pellet is harvested and combined in a small volume (20-50.0 ml) of 50.0 mM Tris.HCl buffer, pH 7.2. […] The pelleted membrane is reconstituted in 50.0 mM Tris.HCl buffer containing 0.1 mM of phenylmethylsulfonyl fluoride (PMSF) to give approximately a protein concentration of 2.5 mg per ml of tissue suspension. The membrane preparation is finally aliquoted in 1.0 ml volumes and stored at -70° C. until use in the binding assays.
In competition studies, experimental compounds are diluted in dimethylsulfoxide (DMSO) and added in 20 ul to wells before the introduction of tissue membranes. […] Assays are performed in triplicate. The wells are left undisturbed for 60 min. at room temperature. […] The filters are removed from the filter grid and counted in a Parkard® Cobra Gamma Counter for 1 min. […] The binding data are analyzed by the non-linear interactive "LUNDON-1" program (LUNDON SOFTWARE Inc., Cleveland, Ohio U.S.A.).

With “[^125 I](Sar^1,Ile^8) AngII [reference compound]”, the Specific binding result is reported as “greater than 90%”.

The values are drawn from patent US5294617A, “Angiotensin II receptor blocking 2,3,6 substituted quinazolinones” (American Cyanamid Company, priority 1993, dated 1994).
